Results as given in ChEMBL document CHEMBL6153079, “Discovery of noncovalent diaminopyrimidine-based Inhibitors for glioblastoma via a dual FAK/DNA targeting strategy” (Eur J Med Chem, 2025).
The source made the active and inactive calls. The rule behind the calls is not given here.

Experiments:
U-87 MG [1] = assay: Induction of DNA damage in human U-87 MG cells assessed as comet tail moment at 0.1 to 2 uM incubated for 2.5 to 3 hrs by comet assay; assay type: functional, U-87MG ATCC; details: time 2.5-3 hrs
U-87 MG [2] = assay: Antitumor activity against human U-87 MG cells xenografted in BALB/c mouse assessed as inhibition of tumor growth at 25 mg/kg, ip administered once daily for 15 days; assay type: functional, U-87MG ATCC; details: 360 h, time 15 day, read-out: TGI
[3] = Toxicity in BALB/c mouse implanted with human U-87 MG cells assessed as lung damage at 25 mg/kg, ip administered once daily for 15 days by H and E staining based analysis; assay type: organism-based; details: in vivo, 360 h, time 15 day
[4] = Toxicity in BALB/c mouse implanted with human U-87 MG cells assessed as spleen damage at 25 mg/kg, ip administered once daily for 15 days by H and E staining based analysis; assay type: organism-based; details: in vivo, 360 h, time 15 day
U-251 = assay: Antiproliferative activity against human U-251 assessed as cell viability incubated for 48 hrs by MTT assay; assay type: functional, cell-based; details: U-251, 48 h
U-87 MG [5] = assay: Antiproliferative activity against human U-87 MG assessed as cell viability incubated for 48 hrs by MTT assay; assay type: functional, cell-based, U-87MG ATCC
Focal adhesion kinase 1 [6] = biological target: T1, Focal adhesion kinase 1 (Homo sapiens, UniProt Q05397); assay: Inhibition of FAK (unknown origin) at 10 nM relative to control
[7] = Cytotoxicity against human LO2 assessed as cell viability incubated for 48 hrs by MTT assay; assay type: toxicity, cell-based, L02; details: LO2 cells
[8] = Cytotoxicity against human 2BS assessed as cell viability incubated for 48 hrs by MTT assay; assay type: toxicity, cell-based; details: 2BS cells
[9] = Distribution coefficient, logD of compound in n-Octanol/water at pH 7.4; assay type: physicochemical
U-87 MG [10] = assay: Inhibition of colony formation in human U-87 MG cells at 0.005 uM incubated for 14 days and subsequent media replacement with compound for every 3 days by crystal violet staining based analysis; assay type: functional, cell-based; details: U-87MG ATCC, time 14.0 day
U-87 MG [11] = assay: Inhibition of colony formation in human U-87 MG cells at 0.005 uM incubated for 14 days and subsequent media replacement with compound for every 3 days in presence of Chlorambucil by crystal violet staining based analysis; assay type: functional, cell-based; details: U-87MG ATCC, time 14.0 day
U-87 MG [12] = assay: Antiproliferative activity against human U-87 MG assessed as inhibition of cell growth at 0.025 to 0.1 uM by clonogenic assay relative to control; assay type: functional, U-87MG ATCC; details: dose 0.025-0.1 µM
U-87 MG [13] = assay: Antiproliferative activity against human U-87 MG assessed as inhibition of cell growth at 0.025 to 0.1 uM in presence of Chlorambucil by clonogenic assay relative to control; assay type: functional, U-87MG ATCC; details: dose 0.025-0.1 µM
U-87 MG [14] = assay: Antiproliferative activity against human U-87 MG assessed as inhibition of cell growth at 0.005 uM by clonogenic assay relative to control; assay type: functional, U-87MG ATCC
U-87 MG [15] = assay: Antiproliferative activity against human U-87 MG assessed as inhibition of cell growth at 0.005 uM in presence of Chlorambucil by clonogenic assay relative to control; assay type: functional, U-87MG ATCC
U-87 MG [16] = assay: Inhibition of cell migration in human U-87 MG cells assessed as […] in migration distance at 0.1 to 1 uM incubated for 24 to 48 hrs by wound healing assay; assay type: functional, cell-based; details: U-87MG ATCC, dose 0.1-1 µM, time lower 24.0 hrs, time upper […]
U-87 MG [17] = assay: Inhibition of cell migration in human U-87 MG cells assessed as […] at 0.1 to 1 uM by wound healing assay; assay type: functional, cell-based; details: U-87MG ATCC, dose 0.1-1 µM, time lower 24.0 hrs, time upper […]
Focal adhesion kinase 1 [18] = biological target: T1, Focal adhesion kinase 1; assay: Inhibition of FAK phosphorylation in human U-87 MG cells at 0.05 to 0.4 uM incubated for 24 hrs by Western blot analysis; assay type: cell-based; details: dose 0.05-0.4 µM
U-87 MG [19] = assay: Inhibition of AKT phosphorylation in human U-87 MG cells at 0.05 to 0.4 uM incubated for 24 hrs by Western blot analysis; assay type: cell-based; details: dose 0.05-0.4 µM
U-87 MG [20] = assay: Inhibition of ERK1/2 phosphorylation in human U-87 MG cells at 0.05 to 0.4 uM incubated for 24 hrs by Western blot analysis; assay type: cell-based; details: dose 0.05-0.4 µM
U-87 MG [21] = assay: Induction of apoptosis in human U-87 MG cells assessed as viable cells at 2 uM measured upto 24 hrs by Annexin V-FITC/PI staining based flow cytometry analysis (reference value: 98.4%); assay type: functional, U-87MG ATCC; details: read-out: Activity
U-87 MG [22] = assay: Induction of apoptosis in human U-87 MG cells assessed as early apoptotic cells at 2 uM measured upto 24 hrs by Annexin V-FITC/PI staining based flow cytometry analysis (reference value: 0.45%); assay type: functional, U-87MG ATCC
U-87 MG [23] = assay: Induction of apoptosis in human U-87 MG cells assessed as late apoptotic cells at 2 uM measured upto 24 hrs by Annexin V-FITC/PI staining based flow cytometry analysis (reference value: 0.54%); assay type: functional, U-87MG ATCC
U-87 MG [24] = assay: Induction of apoptosis in human U-87 MG cells assessed as necrotic cells at 2 uM measured upto 24 hrs by Annexin V-FITC/PI staining based flow cytometry analysis (reference value: 0.62%); assay type: functional, U-87MG ATCC
U-87 MG [25] = assay: Induction of apoptosis in human U-87 MG cells assessed as viable cells at 4 uM measured upto 24 hrs by Annexin V-FITC/PI staining based flow cytometry analysis (reference value: 98.4%); assay type: functional, U-87MG ATCC; details: read-out: Activity
U-87 MG [26] = assay: Induction of apoptosis in human U-87 MG cells assessed as early apoptotic cells at 4 uM measured upto 24 hrs by Annexin V-FITC/PI staining based flow cytometry analysis (reference value: 0.45%); assay type: functional, U-87MG ATCC
U-87 MG [27] = assay: Induction of apoptosis in human U-87 MG cells assessed as late apoptotic cells at 4 uM measured upto 24 hrs by Annexin V-FITC/PI staining based flow cytometry analysis (reference value: 0.54%); assay type: functional, U-87MG ATCC
U-87 MG [28] = assay: Induction of apoptosis in human U-87 MG cells assessed as necrotic cells at 4 uM measured upto 24 hrs by Annexin V-FITC/PI staining based flow cytometry analysis (reference value: 0.62%); assay type: functional, U-87MG ATCC
U-87 MG [29] = assay: Induction of apoptosis in human U-87 MG cells assessed as viable cells at 8 uM measured upto 24 hrs by Annexin V-FITC/PI staining based flow cytometry analysis (reference value: 98.4%); assay type: functional, U-87MG ATCC; details: read-out: Activity
U-87 MG [30] = assay: Induction of apoptosis in human U-87 MG cells assessed as early apoptotic cells at 8 uM measured upto 24 hrs by Annexin V-FITC/PI staining based flow cytometry analysis (reference value: 0.45%); assay type: functional, U-87MG ATCC
U-87 MG [31] = assay: Induction of apoptosis in human U-87 MG cells assessed as late apoptotic cells at 8 uM measured upto 24 hrs by Annexin V-FITC/PI staining based flow cytometry analysis (reference value: 0.54%); assay type: functional, U-87MG ATCC
U-87 MG [32] = assay: Induction of apoptosis in human U-87 MG cells assessed as necrotic cells at 8 uM measured upto 24 hrs by Annexin V-FITC/PI staining based flow cytometry analysis (reference value: 0.62%); assay type: functional, U-87MG ATCC
U-87 MG [33] = assay: Induction of apoptosis in human U-87 MG cells assessed as […] in cleaved caspase-3 level at 0.05 to 0.8 uM incubated for 24 hrs by Western blot analysis; assay type: functional, cell-based; details: U-87MG ATCC, dose 0.05-0.8 µM
U-87 MG [34] = assay: Induction of apoptosis in human U-87 MG cells assessed as […] in Bcl-xL level at 0.05 to 0.8 uM incubated for 24 hrs by Western blot analysis; assay type: functional, cell-based; details: U-87MG ATCC, dose 0.05-0.8 µM
U-87 MG [35] = assay: Induction of cell cycle arrest in human U-87 MG cells assessed as accumulation of cells at G0/G1 phase at 2 uM by propidium Iodide staining based flow cytometry analysis (reference value: 80.68%); assay type: functional, U-87MG ATCC
U-87 MG [36] = assay: Induction of cell cycle arrest in human U-87 MG cells assessed as accumulation of cells at G2M phase at 2 uM by propidium Iodide staining based flow cytometry analysis (reference value: 9.73%); assay type: functional, U-87MG ATCC
U-87 MG [37] = assay: Induction of cell cycle arrest in human U-87 MG cells assessed as accumulation of cells at […] at 2 uM by propidium Iodide staining based flow cytometry analysis (reference value: 1.67%); assay type: functional, U-87MG ATCC
U-87 MG [38] = assay: Induction of cell cycle arrest in human U-87 MG cells assessed as accumulation of cells at S phase at 2 uM by propidium Iodide staining based flow cytometry analysis (reference value: 9.59%); assay type: functional, U-87MG ATCC
U-87 MG [39] = assay: Induction of cell cycle arrest in human U-87 MG cells assessed as accumulation of cells at G0/G1 phase at 4 uM by propidium Iodide staining based flow cytometry analysis (reference value: 80.68%); assay type: functional, U-87MG ATCC
U-87 MG [40] = assay: Induction of cell cycle arrest in human U-87 MG cells assessed as accumulation of cells at G2M phase at 4 uM by propidium Iodide staining based flow cytometry analysis (reference value: 9.73%); assay type: functional, U-87MG ATCC
U-87 MG [41] = assay: Induction of cell cycle arrest in human U-87 MG cells assessed as accumulation of cells at […] at 4 uM by propidium Iodide staining based flow cytometry analysis (reference value: 1.67%); assay type: functional, U-87MG ATCC
U-87 MG [42] = assay: Induction of cell cycle arrest in human U-87 MG cells assessed as accumulation of cells at S phase at 4 uM by propidium Iodide staining based flow cytometry analysis (reference value: 9.59%); assay type: functional, U-87MG ATCC
U-87 MG [43] = assay: Induction of cell cycle arrest in human U-87 MG cells assessed as accumulation of cells at G0/G1 phase at 8 uM by propidium Iodide staining based flow cytometry analysis (reference value: 80.68%); assay type: functional, U-87MG ATCC
U-87 MG [44] = assay: Induction of cell cycle arrest in human U-87 MG cells assessed as accumulation of cells at G2M phase at 8 uM by propidium Iodide staining based flow cytometry analysis (reference value: 9.73%); assay type: functional, U-87MG ATCC
U-87 MG [45] = assay: Induction of cell cycle arrest in human U-87 MG cells assessed as accumulation of cells at […] at 8 uM by propidium Iodide staining based flow cytometry analysis (reference value: 1.67%); assay type: functional, U-87MG ATCC
U-87 MG [46] = assay: Induction of cell cycle arrest in human U-87 MG cells assessed as accumulation of cells at S phase at 8 uM by propidium Iodide staining based flow cytometry analysis (reference value: 9.59%); assay type: functional, U-87MG ATCC

T1 sequence (Q05397 2-1052 limits assumed): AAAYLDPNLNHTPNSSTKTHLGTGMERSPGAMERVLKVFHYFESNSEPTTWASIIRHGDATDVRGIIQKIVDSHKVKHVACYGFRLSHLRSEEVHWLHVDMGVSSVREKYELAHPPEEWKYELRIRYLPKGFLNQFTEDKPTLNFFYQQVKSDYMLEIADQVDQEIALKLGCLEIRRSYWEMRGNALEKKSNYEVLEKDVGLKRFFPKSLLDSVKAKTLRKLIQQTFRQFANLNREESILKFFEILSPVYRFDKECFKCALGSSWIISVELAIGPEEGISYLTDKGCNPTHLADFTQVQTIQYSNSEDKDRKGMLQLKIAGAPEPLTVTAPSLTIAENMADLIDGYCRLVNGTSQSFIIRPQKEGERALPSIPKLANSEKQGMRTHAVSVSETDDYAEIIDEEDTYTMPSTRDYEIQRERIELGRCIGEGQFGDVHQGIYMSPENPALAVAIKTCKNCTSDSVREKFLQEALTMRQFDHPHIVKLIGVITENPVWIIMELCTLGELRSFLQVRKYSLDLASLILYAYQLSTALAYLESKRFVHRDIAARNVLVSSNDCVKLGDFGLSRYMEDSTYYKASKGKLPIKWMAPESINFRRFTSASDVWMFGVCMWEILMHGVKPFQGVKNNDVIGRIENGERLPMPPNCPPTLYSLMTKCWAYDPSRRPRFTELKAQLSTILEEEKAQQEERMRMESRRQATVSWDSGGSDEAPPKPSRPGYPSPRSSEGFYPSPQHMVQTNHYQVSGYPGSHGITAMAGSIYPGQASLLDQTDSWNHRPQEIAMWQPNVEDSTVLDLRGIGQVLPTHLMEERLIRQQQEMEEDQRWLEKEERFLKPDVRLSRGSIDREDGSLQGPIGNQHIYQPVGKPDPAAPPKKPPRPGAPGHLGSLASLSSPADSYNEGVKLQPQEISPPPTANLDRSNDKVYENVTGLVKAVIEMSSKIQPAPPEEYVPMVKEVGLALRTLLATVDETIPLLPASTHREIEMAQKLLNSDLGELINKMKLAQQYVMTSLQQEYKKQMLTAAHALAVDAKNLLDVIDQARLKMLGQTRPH

SMILES: Cn1nnc2c(C(N)=O)ncn2c1=O [TEMOZOLOMIDE]
- Activity (U-87 MG [1]): 11.6
- inhibition in vivo at 25 mg/kg (U-87 MG [2]): 31.4%
- Activity [3]: Non-toxic
- Activity [4]: Non-toxic

SMILES: CNC(=O)c1ccccc1Nc1nc(Nc2ccc(N3CCOCC3)cc2OC)ncc1Cl
- IC50 (U-251): 5.84 µM
- IC50 (U-87 MG [5]): 2.85 µM
- inhibition (Focal adhesion kinase 1 [6]): 78.6%
- IC50 at 48 h [7]: 4.14 µM
- IC50 at 48 h [8]: 42.8 µM
- logD [9]: 3.49
- Activity (U-87 MG [1]; U-87MG ATCC): inactive
- inhibition (U-87 MG [10]): inactive
- inhibition (U-87 MG [11]): inactive
- inhibition (INH) (U-87 MG [12]): 60%
- inhibition (INH) (U-87 MG [13]): 61%
- inhibition at 0.005 µM (U-87 MG [14]): ~8%
- inhibition at 0.005 µM (U-87 MG [15]): 12%
- inhibition (U-87 MG [16]): Active
- inhibition (U-87 MG [17]): Time-dependent-effect
- inhibition (Focal adhesion kinase 1 [18]): inactive
- inhibition (U-87 MG [19]): inactive
- inhibition (U-87 MG [20]): inactive
- viability at 2 µM (U-87 MG [21]): 84.3%
- Activity (U-87 MG [22]): 2.78%
- Activity (U-87 MG [23]): 9.29%
- Activity (U-87 MG [24]): 3.64%
- viability at 4 µM (U-87 MG [25]): 78.2%
- Activity (U-87 MG [26]): 11%
- Activity (U-87 MG [27]): 4.35%
- Activity (U-87 MG [28]): 6.39%
- viability at 8 µM (U-87 MG [29]): 61.2%
- Activity (U-87 MG [30]): 26.2%
- Activity (U-87 MG [31]): 12.3%
- Activity (U-87 MG [32]): 0.31%
- Activity (U-87 MG [33]): Active
- Activity (U-87 MG [34]): Active
- Activity (U-87 MG [35]): 72.55%
- Activity (U-87 MG [36]): 14.62%
- Activity (U-87 MG [37]): 1.75%
- Activity (U-87 MG [38]): 12.83%
- Activity (U-87 MG [39]): 56.37%
- Activity (U-87 MG [40]): 23.91%
- Activity (U-87 MG [41]): 1.81%
- Activity (U-87 MG [42]): 19.73%
- Activity (U-87 MG [43]): 33.93%
- Activity (U-87 MG [44]): 62.41%
- Activity (U-87 MG [45]): 1.84%
- Activity (U-87 MG [46]): 3.66%
